Data from patent US8883415B2, “Aza-benzazolium containing cyanine dyes” (Life Technologies Corporation, priority 1999, dated 2014).
“Also recorded” adds a separate entry of the source.

Tests used:
Format in all cases: binding
[1] = tested on: double-stranded bacteriophage λ cl857 DNA that is digested with HindIII restriction endonuclease; experiment: Detecting nucleic acids in gels; settings: POLAROID 667 B&W film; FOTODYNE 254 nm epi.; 1 micromolar dye
[2] = tested on: double-stranded bacteriophage λ cl857 DNA that is digested with HindIII restriction endonuclease; experiment: Detecting nucleic acids in gels; settings: 1 micromolar dye
Protocol: DNA samples are loaded onto agarose or polyacrylamide gels and electrophoresed using standard conditions. Selected dyes of the invention are dissolved in DMSO at a concentration of 1-10 micromolar and diluted into 0.5×TBE buffer to a final concentration of 1 micromolar dye. Gels are incubated for 20-90 minutes in this staining solution, with gentle agitation, at room temperature, protected from light. Nucleic acids are visualized by transillumination at 300 nm, followed by direct visual detection or photography using Polaroid black-and-white print film. Nucleic acids are alternatively visualized by scanning using a FMBIO II laser scanner with a 532 nm frequency-doubled YAG laser source or a charge-coupled device camera system coupled with an ultraviolet (300 nm) light source, or a visible light transilluminator.

[3] = tested on: double-stranded DNA; experiment: Detecting double-stranded DNA in solution (fluorescence microplate reader)
Protocol: Samples containing 0.1 ng/mL to 1 microgram/mL double-stranded DNA are prepared in 10 mM Tris-HCl, 1 mM EDTA, pH 7.5. The selected dye of the invention is dissolved in DMSO at a concentration of 1-10 mM and then diluted into the same buffer at a concentration sufficient to achieve final optical densities of 0.1 and 0.01 at 500 nm, 530 nm, 540 nm or 560 nm. Equal volumes (100 microliters each) of DNA sample solution and dye solution at each concentration are combined and mixed gently at room temperature in a microplate well.
Samples are allowed to equilibrate for 5-60 minutes, protected from light, and the fluorescence of the sample is measured using a fluorescence microplate reader. DNA concentration is determined by comparison of the sample fluorescence with a standard curve obtained with that dye for each dye concentration. The sensitivity limit of several dyes in this assay is shown (Table 5).

[4] = tested on: double-stranded DNA; experiment: Detecting double-stranded DNA in the presence of single-stranded DNA; settings: nucleic acids 2 micrograms/mL; dye 1 micromolar; excitation 540 nm, emission 570 nm
Protocol: Samples containing nucleic acids at a concentration of 2 micrograms/mL are combined with Compound 16, Compound 22, or Compound 24 at a final dye concentration of 1 micromolar in 10 mM Tris-HCl, 1 mM EDTA, pH 7.5, and mixed gently. The resulting mixture is allowed to incubate for 5-60 minutes at room temperature, protected from light, and sample fluorescence is measured using a fluorescence microplate reader, with excitation at 540 nm and emission at 570 nm. […] If, however, the dye concentration is reduced relative to the concentration of single-stranded nucleic acids, the fluorescence upon binding those nucleic acids increases relative to that of the double-stranded DNA-dye complex. Thus the assay is always performed in sufficient dye excess.

[5] = tested on: 18-base oligodeoxynucleotide sequencing primer; experiment: Detecting oligonucleotides in solution
Protocol: Selected dyes of the invention are dissolved in DMSO at 1-10 micromolar concentration, then diluted into 10 mM Tris-HCl, 1 mM EDTA, pH 7.5 to a final optical density of 0.1 or 0.01 at 530 nm or 540 nm. The resulting dye solutions are combined with an equal volume of an 18-base oligodeoxynucleotide sequencing primer solution at concentrations of 0.1 ng/mL to 1 microgram/mL in the same buffer. The resulting mixture is mixed gently and incubated for 5-60 minutes at room temperature, protected from light, and the sample fluorescence is measured in a fluorescence microplate reader.

[6] = tested on: Escherichia coli ribosomal RNA; experiment: Detecting RNA in solution
Protocol: Selected dyes of the invention are dissolved in DMSO at 1-10 micromolar concentration, then diluted into 10 mM Tris-HCl, 1 mM EDTA, pH 7.5 to a final optical density of 0.1 or 0.01 at 530 nm or 540 nm. These dye solutions are combined with an equal volume of Escherichia coli ribosomal RNA at concentrations ranging from 0.25 ng/mL to 1 microgram/mL in microplate wells. The resulting mixtures are mixed gently and incubated for 5-60 minutes at room temperature, protected from light, and the sample fluorescence is measured.

[7] = BOEHRINGER MANNHEIM LUMIIMAGER CCD, 300 nm trans., 520 nm em.
[8] = BOEHRINGER MANNHEIM LUMIIMAGER CCD, 300 nm trans., 545 nm em
[9] = HITACHI FMBIO II laser scanner, 532 nm freq.-doubled YAG laser
[10] = POLAROID 667 B&W film, DARK READER visible light box
[11] = POLAROID 667 B&W film, FOTODYNE 300 nm trans.
[12] = Excitation 530 nm/Emission 560 nm
[13] = Excitation 540 nm/Emission 570 nm

Structure (SMILES): CCCCC1=C/C(=C\c2nc3c(ccc[n+]3C)o2)c2ccccc2N1c1ccccc1.[I-] [Compound 15]
- Sensitivity for detecting double-stranded DNA in agarose gels [1]: 60 pg
- Sensitivity for detecting double-stranded DNA in agarose gels [2, 7]: 210 pg
- Sensitivity for detecting double-stranded DNA in agarose gels [2, 8]: 100 pg
- Sensitivity for detecting double-stranded DNA in agarose gels [2, 9]: 100 pg
- Sensitivity for detecting double-stranded DNA in agarose gels [2, 10]: 480 pg
- Sensitivity for detecting double-stranded DNA in agarose gels [2, 11]: 240 pg
- Sensitivity Limit, High dye concentration (0.1 OD) [3, 12]: 10 ng/mL
- Sensitivity Limit, Low dye concentration (0.01 OD) [3, 12]: 0.5 ng/mL

Structure (SMILES): CN1C(c2ccccc2)=C/C(=C\c2nc3c(ccc[n+]3C)o2)c2ccccc21.[I-] [Compound 16]
- Sensitivity for detecting double-stranded DNA in agarose gels [1]: 30 pg
- Sensitivity for detecting double-stranded DNA in agarose gels [2, 7]: 210 pg
- Sensitivity for detecting double-stranded DNA in agarose gels [2, 8]: 50 pg
- Sensitivity for detecting double-stranded DNA in agarose gels [2, 9]: 25 pg
- Sensitivity for detecting double-stranded DNA in agarose gels [2, 10]: 240 pg
- Sensitivity for detecting double-stranded DNA in agarose gels [2, 11]: 120 pg
- Sensitivity Limit, High dye concentration (0.1 OD) [3, 13]: <10 ng/mL
- Sensitivity Limit, Low dye concentration (0.01 OD) [3, 13]: 1.0 ng/mL
- Preferential fluorescent staining of double-stranded DNA in the presence of single-stranded DNA and RNA [4]: preferential fluorescent staining of double-stranded DNA; also recorded: detected preferentially

Structure (SMILES): C[n+]1cccc2oc(/C=C3\C=C(c4ccccc4)N(c4ccccc4)c4ccccc43)nc21.[I-] [Compound 17]
- Sensitivity Limit, High dye concentration (0.1 OD) [3, 12]: <10 ng/mL
- Sensitivity Limit, Low dye concentration (0.01 OD) [3, 12]: 2.0 ng/mL

Structure (SMILES): CCN1C(c2ccccc2)=C/C(=C\c2nc3c(ccc[n+]3C)o2)c2cc3c(cc21)OCO3.[I-] [Compound 18]
- Sensitivity Limit, High dye concentration (0.1 OD) [5, 12]: <10 ng/mL
- Sensitivity Limit, Low dye concentration (0.01 OD) [5, 12]: >10 ng/mL
- Sensitivity for detecting double-stranded DNA in agarose gels [1]: 60 pg
- Sensitivity for detecting double-stranded DNA in agarose gels [2, 7]: 210 pg
- Sensitivity for detecting double-stranded DNA in agarose gels [2, 8]: 100 pg
- Sensitivity for detecting double-stranded DNA in agarose gels [2, 9]: 50 pg
- Sensitivity for detecting double-stranded DNA in agarose gels [2, 11]: 120 pg
- Sensitivity Limit, High dye concentration (0.1 OD) [6, 12]: 10 ng/mL
- Sensitivity Limit, Low dye concentration (0.01 OD) [6, 12]: 1.2 ng/mL
- Sensitivity Limit, High dye concentration (0.1 OD) [3, 12]: <10 ng/mL
- Sensitivity Limit, Low dye concentration (0.01 OD) [3, 12]: 0.2 to 0.5 ng/mL

Structure (SMILES): COc1ccc2c(c1)/C(=C/c1nc3c(ccc[n+]3C)o1)C=C(c1ccccc1)N2C.[I-] [Compound 19]
- Sensitivity Limit, High dye concentration (0.1 OD) [5, 13]: <10 ng/mL
- Sensitivity Limit, Low dye concentration (0.01 OD) [5, 13]: >10 ng/mL
- Sensitivity Limit, High dye concentration (0.1 OD) [6, 13]: 20 ng/mL
- Sensitivity Limit, Low dye concentration (0.01 OD) [6, 13]: 10 ng/mL
- Sensitivity Limit, High dye concentration (0.1 OD) [3, 13]: <10 ng/mL
- Sensitivity Limit, Low dye concentration (0.01 OD) [3, 13]: 0.5 ng/mL

Structure (SMILES): COc1ccc2c(c1)N(C)C(c1ccccc1)=C/C2=C\c1nc2c(ccc[n+]2C)o1.[I-] [Compound 21]
- Sensitivity for detecting double-stranded DNA in agarose gels [1]: 60 pg
- Sensitivity for detecting double-stranded DNA in agarose gels [2, 7]: 420 pg
- Sensitivity for detecting double-stranded DNA in agarose gels [2, 8]: 50 pg
- Sensitivity for detecting double-stranded DNA in agarose gels [2, 9]: 50 pg
- Sensitivity for detecting double-stranded DNA in agarose gels [2, 11]: 120 pg
- Sensitivity Limit, High dye concentration (0.1 OD) [3, 12]: <10 ng/mL
- Sensitivity Limit, Low dye concentration (0.01 OD) [3, 12]: 0.2 ng/mL

Structure (SMILES): CCN(CC)Cc1ccc(C2=C/C(=C\c3nc4c(ccc[n+]4C)o3)c3cc(OC)ccc3N2C)cc1.[I-] [Compound 23]
- Sensitivity Limit, High dye concentration (0.1 OD) [5, 13]: <10 ng/mL
- Sensitivity Limit, Low dye concentration (0.01 OD) [5, 13]: 1.0 ng/mL
- Sensitivity for detecting double-stranded DNA in agarose gels [1]: 60 pg
- Sensitivity for detecting double-stranded DNA in agarose gels [2, 7]: 830 pg
- Sensitivity for detecting double-stranded DNA in agarose gels [2, 8]: 100 pg
- Sensitivity for detecting double-stranded DNA in agarose gels [2, 9]: 5 pg
- Sensitivity for detecting double-stranded DNA in agarose gels [2, 10]: 240 pg
- Sensitivity for detecting double-stranded DNA in agarose gels [2, 11]: 120 pg
- Sensitivity Limit, High dye concentration (0.1 OD) [6, 13]: 200 ng/mL
- Sensitivity Limit, Low dye concentration (0.01 OD) [6, 13]: 2.5 ng/mL
- Sensitivity Limit, High dye concentration (0.1 OD) [3, 13]: <10 ng/mL
- Sensitivity Limit, Low dye concentration (0.01 OD) [3, 13]: 0.2 ng/mL

Structure (SMILES): C[n+]1cccc2oc(/C=C3\C=C(Cl)N(c4ccccc4)c4ccccc43)nc21 [Compound 29]
- Sensitivity Limit, High dye concentration (0.1 OD) [3, 13]: 100 ng/mL
- Sensitivity Limit, Low dye concentration (0.01 OD) [3, 13]: 2.0 ng/mL

Structure (SMILES): CCN(CC)C1=C/C(=C\c2nc3c(ccc[n+]3C)o2)c2ccccc2N1c1ccccc1 [Compound 30]
- Sensitivity Limit, High dye concentration (0.1 OD) [3, 12]: 10 ng/mL
- Sensitivity Limit, Low dye concentration (0.01 OD) [3, 12]: 1.0 ng/mL

Structure (SMILES): CN1C=C/C(=C\c2nc3cc[n+](C)cc3o2)c2ccccc21.[I-] [Compound 31]
- Sensitivity Limit, High dye concentration (0.1 OD) [3, 12]: 50 ng/mL
- Sensitivity Limit, Low dye concentration (0.01 OD) [3, 12]: 2.0 ng/mL

Structure (SMILES): CN1C(Sc2ccccn2)=C/C(=C\c2nc3c(ccc[n+]3C)s2)c2ccccc21.[I-] [Compound 32]
- Sensitivity Limit, High dye concentration (0.1 OD) [3, 12]: 10 ng/mL
- Sensitivity Limit, Low dye concentration (0.01 OD) [3, 12]: 1.0 ng/mL
